# Measurements from the NIST ThermoML archive (doi:10.1016/j.jct.2006.07.014).
# Numbers after ± are expanded uncertainties.
# How the values were obtained:
# [1] = refractive index (Na D-line) (dimensionless); settings: 298.15 K; 101.33 kPa; Liquid; Standard Abbe refractometry
# [2] = Liquid; for mass density: 298.15 K, 101.33 kPa, Vibrating tube method
refractive index [1],mass density [2],vapor or sublimation pressure ([2]; 379.45 K),vapor or sublimation pressure ([2]; 353.85 K),vapor or sublimation pressure ([2]; 352.25 K),vapor or sublimation pressure ([2]; 389.15 K),vapor or sublimation pressure ([2]; 371.05 K),SMILES
1.3939 ± 0.0012,797.8 ± 4.6 kg/m3,94.83 ± 5 kPa,,,,,CC(C)CO [2-methyl-1-propanol]
1.3852 ± 0.0012,781.2 ± 4.4 kg/m3,,94.83 ± 5 kPa,,,,CC(C)(C)O [2-methylpropan-2-ol]
1.3416 ± 0.0012,776.5 ± 4.3 kg/m3,,,94.83 ± 5 kPa,,,CC#N [acetonitrile]
1.3974 ± 0.0012,805.8 ± 4.6 kg/m3,,,,94.83 ± 5 kPa,,CCCCO [butan-1-ol]
1.3953 ± 0.0012,802.4 ± 4.6 kg/m3,,,,,94.83 ± 5 kPa,CCC(C)O (stereo not given) [butan-2-ol]
